Earlier results as cited in PMC8654284 (Science Advances, 2021).
Like-named read-outs stand apart in the source and are kept apart here.

Columns and labels:
NK1R [1] = system: NK1R
NK1R [2] = conditions: said to explain the insurmountable antagonism only in part
NK1R [3] = conditions: clinically used NK1R antagonists
NK1R [4] = conditions: NKA and NKB compared to SP
NK1R E172K = conditions: NK1R E172 mutated to lysine as found in NK3R
[5] = inhibition of receptor activation by SP

Row | Compound | mode of antagonism (NK1R [1]; [5]) | dissociation kinetics (NK1R [2]) | in vivo efficacy (duration) (NK1R [3]) | affinity for NK1R (NK1R [4]) | further results
1 | COc1ccccc1CN[C@H]1CCCN[C@H]1c1ccccc1 [CP-99,994] | – | – | – | – | mode of antagonism (NK1R [1]; compared to aprepitant and netupitant): tight-binding, but surmountable
2 | C[C@@H](O[C@H]1OCCN(Cc2n[nH]c(=O)[nH]2)[C@H]1c1ccc(F)cc1)c1cc(C(F)(F)F)cc(C(F)(F)F)c1 [aprepitant] | pseudo-irreversible antagonists | slower dissociation kinetics | markedly prolonged in vivo efficacy | – | –
3 | Cc1ccccc1-c1cc(N2CCN(C)CC2)ncc1N(C)C(=O)C(C)(C)c1cc(C(F)(F)F)cc(C(F)(F)F)c1 [netupitant] | pseudo-irreversible antagonists | slower dissociation kinetics | markedly prolonged in vivo efficacy | – | –
4 | neurokinin A [NKA] | – | – | – | lower affinity compared to SP | –
5 | neurokinin B [NKB] | – | – | – | lower affinity compared to SP | affinity of NKB at E172K mutant (NK1R E172K): increases affinity
